Measurements as given in patent publication US20260242419A1, “A CYCLIC PEPTIDE FOR TRAPPING INTERLEUKIN-1 BETA” (Merck Sharp & Dohme LLC, priority 2023, published 2026).
pIC50: −log10 of the molar value. Starred links: 1 amine or outer side, 2 acyl side, 3 side chain; linkers in the order of their positions; H or OH if unused. Non-standard residues stand in square brackets, D forms with d. Residues, ends and D or L forms follow the SMILES beside them. dPro(4R-(4-pyridylmethyl)) = O=C(O)[C@H]1C[C@@H](Cc2ccncc2)CN1; Trp(βS-Me,4-F) = C[C@@H](c1c[nH]c2cccc(F)c12)[C@H](N)C(=O)O; Bip(4'-COOH) = N[C@@H](Cc1ccc(-c2ccc(C(=O)O)cc2)cc1)C(=O)O; Ala(1-bicyclo(1.1.1)pentyl) = N[C@@H](CC12CC(C1)C2)C(=O)O; Phe(4-(4-pyridyl)) = N[C@@H](Cc1ccc(-c2ccncc2)cc1)C(=O)O; dPro(3S-(4-F-Bn)) = O=C(O)[C@@H]1NCC[C@@H]1Cc1ccc(F)cc1; X27 = COc1ncc(-c2ccc(C[C@H](N[*:1])C(=O)[*:2])cc2)cn1; X32 = Cn1cnc(-c2ccc(C[C@H](N[*:1])C(=O)[*:2])cc2)c1; X12 = Cn1ccnc1-c1ccc(C[C@H](N[*:1])C(=O)[*:2])cc1; X40 = O=C([C@H](Cc1ccc(-c2cncnc2)cc1)N[*:1])[*:2]; X4 = O=C([C@H]1[C@@H](Cc2ccncc2)CCN1[*:1])[*:2]; Ala(pyrimidin-5-yl) = N[C@@H](Cc1cncnc1)C(=O)O; Phe(4-COOH) = N[C@@H](Cc1ccc(C(=O)O)cc1)C(=O)O; Pro(cis-4-F) = O=C(O)[C@@H]1C[C@H](F)CN1; Phe(4-F) = N[C@@H](Cc1ccc(F)cc1)C(=O)O; X6 = O=C([C@H](Cc1ccncn1)N[*:1])[*:2]; d(αMeD) = C[C@@](N)(CC(=O)O)C(=O)O; 4Pal = N[C@@H](Cc1ccncc1)C(=O)O; Dab = NCC[C@H](N)C(=O)O; Aib = CC(C)(N)C(=O)O

molecular target: T1, IL-1β (Homo sapiens, UniProt P01584); assay: IL-6 assay in MRC5 cells: inhibition of IL-1β induced IL-6 secretion (AlphaLISA); assay type: cell-based; details: inhibition of IL-1β induced IL-6 secretion in MRC5 cells; compound pre-incubated 1 hour with recombinant human IL-1β; read-out: MRC5 IC50
T1 construct: purchased BioLegend 579404
Method in brief: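 Compound was pre-incubated 1 h at ambient temperature with recombinant human IL-1β at 2λ EC80 before adding human lung fibroblast MRC5 cells (3000/well) in EMEM with 0.025% BSA. After overnight culture at 37 °C, 5% CO2, secreted IL-6 in conditioned medium was measured by AlphaLISA; IC50 from 4-parameter logistic fits.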

T1 sequence (P01584 117-269): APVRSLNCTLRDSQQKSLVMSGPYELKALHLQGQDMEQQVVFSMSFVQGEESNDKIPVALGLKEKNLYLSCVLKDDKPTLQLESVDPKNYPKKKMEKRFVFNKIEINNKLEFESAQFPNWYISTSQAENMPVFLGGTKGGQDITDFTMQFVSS

Row | pIC50 | SMILES
1 | 10.64 | C[C@@H](c1c[nH]c2cccc(F)c12)[C@@H]1NC(=O)[C@@H]2C[C@H](F)CN2C(=O)CNC(=O)[C@H](Cc2ccc(C(=O)O)cc2)NC(=O)[C@H](Cc2ccncc2)NC(=O)[C@H](Cc2ccc(F)cc2)NC(=O)[C@H]2[C@@H](Cc3ccc(F)cc3)CCN2C(=O)CNC(=O)[C@H](CCN)NC(=O)[C@H](CCC(N)=O)NC(=O)[C@H](Cc2cncnc2)NC(=O)[C@@](C)(CC(=O)O)NC(=O)[C@H](Cc2c[nH]c3ccccc23)NC(=O)[C@H](CO)NC(=O)C(C)(C)NC1=O [Example 277] (cyclo([Phe(4-F)][4Pal][Phe(4-COOH)]G[Pro(cis-4-F)][Trp(βS-Me,4-F)][Aib]SW[d(αMeD)][Ala(pyrimidin-5-yl)]Q[Dab]G[dPro(3S-(4-F-Bn))]))
2 | 10.68 | C[C@@H](c1c[nH]c2cccc(F)c12)[C@@H]1NC(=O)[C@@H]2C[C@H](F)CN2C(=O)CNC(=O)[C@H](Cc2ccc(C(=O)O)cc2)NC(=O)[C@H](Cc2ccncc2)NC(=O)[C@H](Cc2ccc(O)cc2)NC(=O)[C@H]2[C@@H](Cc3ccc(F)cc3)CCN2C(=O)CNC(=O)[C@H](CCN)NC(=O)[C@H](CCC(N)=O)NC(=O)[C@H](Cc2cncnc2)NC(=O)[C@@](C)(CC(=O)O)NC(=O)[C@H](Cc2c[nH]c3ccccc23)NC(=O)[C@H](CO)NC(=O)C(C)(C)NC1=O [Example 278] (cyclo(Y[4Pal][Phe(4-COOH)]G[Pro(cis-4-F)][Trp(βS-Me,4-F)][Aib]SW[d(αMeD)][Ala(pyrimidin-5-yl)]Q[Dab]G[dPro(3S-(4-F-Bn))]))
3 | 10.89 | C[C@@H](c1c[nH]c2cccc(F)c12)[C@@H]1NC(=O)[C@@H]2C[C@H](F)CN2C(=O)CNC(=O)[C@H](Cc2ccc(C(=O)O)cc2)NC(=O)[C@H](Cc2ccncc2)NC(=O)[C@H](Cc2ccc(-c3cn(C)cn3)cc2)NC(=O)[C@H]2[C@@H](Cc3ccc(F)cc3)CCN2C(=O)CNC(=O)[C@H](CCN)NC(=O)[C@H](CCC(N)=O)NC(=O)[C@H](Cc2cncnc2)NC(=O)[C@@](C)(CC(=O)O)NC(=O)[C@H](Cc2c[nH]c3ccccc23)NC(=O)[C@H](CO)NC(=O)C(C)(C)NC1=O [Example 279] (cyclo([X32][4Pal][Phe(4-COOH)]G[Pro(cis-4-F)][Trp(βS-Me,4-F)][Aib]SW[d(αMeD)][Ala(pyrimidin-5-yl)]Q[Dab]G[dPro(3S-(4-F-Bn))]))
4 | 10.80 | C[C@@H](c1c[nH]c2cccc(F)c12)[C@@H]1NC(=O)[C@@H]2C[C@H](F)CN2C(=O)CNC(=O)[C@H](Cc2ccc(C(=O)O)cc2)NC(=O)[C@H](Cc2ccncc2)NC(=O)[C@H](Cc2ccc(-c3nccn3C)cc2)NC(=O)[C@H]2[C@@H](Cc3ccc(F)cc3)CCN2C(=O)CNC(=O)[C@H](CCN)NC(=O)[C@H](CCC(N)=O)NC(=O)[C@H](Cc2cncnc2)NC(=O)[C@@](C)(CC(=O)O)NC(=O)[C@H](Cc2c[nH]c3ccccc23)NC(=O)[C@H](CO)NC(=O)C(C)(C)NC1=O [Example 280] (cyclo([X12][4Pal][Phe(4-COOH)]G[Pro(cis-4-F)][Trp(βS-Me,4-F)][Aib]SW[d(αMeD)][Ala(pyrimidin-5-yl)]Q[Dab]G[dPro(3S-(4-F-Bn))]))
5 | 10.92 | COc1ncc(-c2ccc(C[C@@H]3NC(=O)[C@H]4[C@@H](Cc5ccc(F)cc5)CCN4C(=O)CNC(=O)[C@H](CCN)NC(=O)[C@H](CCC(N)=O)NC(=O)[C@H](Cc4cncnc4)NC(=O)[C@@](C)(CC(=O)O)NC(=O)[C@H](Cc4c[nH]c5ccccc45)NC(=O)[C@H](CO)NC(=O)C(C)(C)NC(=O)[C@H]([C@@H](C)c4c[nH]c5cccc(F)c45)NC(=O)[C@@H]4C[C@H](F)CN4C(=O)CNC(=O)[C@H](Cc4ccc(C(=O)O)cc4)NC(=O)[C@H](Cc4ccncc4)NC3=O)cc2)cn1 [Example 281] (cyclo([X27][4Pal][Phe(4-COOH)]G[Pro(cis-4-F)][Trp(βS-Me,4-F)][Aib]SW[d(αMeD)][Ala(pyrimidin-5-yl)]Q[Dab]G[dPro(3S-(4-F-Bn))]))
6 | 10.85 | C[C@@H](c1c[nH]c2cccc(F)c12)[C@@H]1NC(=O)[C@@H]2C[C@H](F)CN2C(=O)CNC(=O)[C@H](Cc2ccc(C(=O)O)cc2)NC(=O)[C@H](Cc2ccncc2)NC(=O)[C@H](Cc2ccc(-c3cncnc3)cc2)NC(=O)[C@H]2[C@@H](Cc3ccc(F)cc3)CCN2C(=O)CNC(=O)[C@H](CCN)NC(=O)[C@H](CCC(N)=O)NC(=O)[C@H](Cc2cncnc2)NC(=O)[C@@](C)(CC(=O)O)NC(=O)[C@H](Cc2c[nH]c3ccccc23)NC(=O)[C@H](CO)NC(=O)C(C)(C)NC1=O [Example 282] (cyclo([X40][4Pal][Phe(4-COOH)]G[Pro(cis-4-F)][Trp(βS-Me,4-F)][Aib]SW[d(αMeD)][Ala(pyrimidin-5-yl)]Q[Dab]G[dPro(3S-(4-F-Bn))]))
7 | 10.80 | C[C@@H](c1c[nH]c2cccc(F)c12)[C@@H]1NC(=O)[C@@H]2C[C@H](F)CN2C(=O)CNC(=O)[C@H](Cc2ccc(C(=O)O)cc2)NC(=O)[C@H](Cc2ccncc2)NC(=O)[C@H](Cc2ccc(-c3ccncc3)cc2)NC(=O)[C@H]2[C@@H](Cc3ccc(F)cc3)CCN2C(=O)CNC(=O)[C@H](CCN)NC(=O)[C@H](CCC(N)=O)NC(=O)[C@H](Cc2cncnc2)NC(=O)[C@@](C)(CC(=O)O)NC(=O)[C@H](Cc2c[nH]c3ccccc23)NC(=O)[C@H](CO)NC(=O)C(C)(C)NC1=O [Example 283] (cyclo([Phe(4-(4-pyridyl))][4Pal][Phe(4-COOH)]G[Pro(cis-4-F)][Trp(βS-Me,4-F)][Aib]SW[d(αMeD)][Ala(pyrimidin-5-yl)]Q[Dab]G[dPro(3S-(4-F-Bn))]))
8 | 10.82 | C[C@@H](c1c[nH]c2cccc(F)c12)[C@@H]1NC(=O)[C@@H]2C[C@H](F)CN2C(=O)CNC(=O)[C@H](Cc2ccc(C(=O)O)cc2)NC(=O)[C@H](CC23CC(C2)C3)NC(=O)[C@H](Cc2ccc(-c3ccc(C(=O)O)cc3)cc2)NC(=O)[C@H]2[C@@H](Cc3ccncc3)CCN2C(=O)CNC(=O)[C@H](CCN)NC(=O)[C@H](CCC(N)=O)NC(=O)[C@H](Cc2ccncn2)NC(=O)[C@@](C)(CC(=O)O)NC(=O)[C@H](Cc2c[nH]c3ccccc23)NC(=O)[C@H](CO)NC(=O)C(C)(C)NC1=O [Example 284] (cyclo([Bip(4'-COOH)][Ala(1-bicyclo(1.1.1)pentyl)][Phe(4-COOH)]G[Pro(cis-4-F)][Trp(βS-Me,4-F)][Aib]SW[d(αMeD)][X6]Q[Dab]G[X4]))
9 | 10.89 | C[C@@H](c1c[nH]c2cccc(F)c12)[C@@H]1NC(=O)[C@@H]2C[C@H](F)CN2C(=O)CNC(=O)[C@H](Cc2ccc(C(=O)O)cc2)NC(=O)[C@H](CC23CC(C2)C3)NC(=O)[C@H](Cc2ccc(-c3ccc(C(=O)O)cc3)cc2)NC(=O)[C@H]2C[C@@H](Cc3ccncc3)CN2C(=O)CNC(=O)[C@H](CCN)NC(=O)[C@H](CCC(N)=O)NC(=O)[C@H](Cc2ccncn2)NC(=O)[C@@](C)(CC(=O)O)NC(=O)[C@H](Cc2c[nH]c3ccccc23)NC(=O)[C@H](CO)NC(=O)C(C)(C)NC1=O [Example 285] (cyclo([Bip(4'-COOH)][Ala(1-bicyclo(1.1.1)pentyl)][Phe(4-COOH)]G[Pro(cis-4-F)][Trp(βS-Me,4-F)][Aib]SW[d(αMeD)][X6]Q[Dab]G[dPro(4R-(4-pyridylmethyl))]))
